Assays:
[1] = Fluorescence quantum yield determination; assay type: physicochemical; details: in DMSO; for φF fluorescence quantum yield: calculated using riboflavin as the reference
Description: 4 Fluorescence Quantum Yield Calculations
The fluorescence quantum yields (ФF) for F1-4 were determined by preparing a series of dilutions in DMSO ranging
in absorbance values from 0.02 to 0.10 and excited at their respective absorbance maxima (see Table S1).3 The
emission peak was then integrated and plotted against the absorbance value (see Figure S1). Riboflavin (from
according to equation (1):
Φ!;#$%&’( = Φ!;)(* $ !"#$%&% $ !"#$%&) % (1)
Where Slope = gradient from the plot of integrated emission peak vs. absorption value and η = refractive index
Flavin ε (M-1cm-1) λex (nm) λem (nm)
Figure S2: Plot of integrated emission peak against absorbance value of flavins F1-4 and reference compound

[2] = Singlet oxygen quantum yield determination; assay type: physicochemical; details: in MeCN; for φΔ singlet oxygen quantum yield: calculated using Ru(bpy)3^2+ as the reference
[3] = Flavin photostability in PBS under white LED irradiation; assay type: physicochemical; details: 100 µM in PBS, white LED 1 × 10^5 lx, 30 min irradiation
Source text: After successful synthesis and initial characterisation, we monitored the photostability of the compounds in PBS (1x, pH 7.4) which was used for PDI assays as distilled or ultrapure water destabilises bacterial cells and coronaviruses through osmotic pressures[37],[38], thereby augmenting inactivation results. […] This yields lumichrome as the major degradation product which can only act as a PS under UV-irradiation[40]. […] However, it appears that guanidino substitution in our case improves the photostability.
Figure S4: (A) Flavin photostability (100 µM) in PBS (0.1% DMSO) irradiated with 1x105 lx (35 mW/cm2) where A
= Abs at 450 nm and A0 = Abs at 450 nm at 0 min.
photostability. Experiments were performed using a quartz cuvette and measured using an Agilent Cary 300
(1 picture or pasted object on this page, not shown here)

[4] = system: ssRNA (EGFP-encoding mRNA, ~ 1 k nt); experiment: ssRNA photocleavage, agarose gel electrophoresis; assay type: biochemical; details: 10 µM flavin, 15 min white LED, PBS 0.1% DMSO
Description: A 20 µL aliquot was taken after 15 min of white LED irradiation (1 × 10^5 lx). Prior to loading, 2 µL of 6X Orange-G loading dye in glycerol were added to the aliquot and mixed vigorously. The gel was electrophoresed at 80 V for 35 min with 1% agarose gels in 1X Tris–acetate-EDTA (TAE) buffer. Gels were then imaged in a Syngene G:BOX Gel Documentation System and band % quantification was performed using ImageJ Gel Analyzer.

[5] = system: 17Cl-1 cells; experiment: 24 h MTS cytotoxicity assay, 17Cl-1; assay type: cell-based, murine; details: Mus musculus, 24 h incubation, dark
Description: The MTS tetrazolium compound is reduced by cells into a coloured formazan product which is soluble in cell culture media. It can be detected colorimetrically between 450 and 540 nm with the measured absorbance directly proportional to the amount of metabolically active cells in culture. Cells were seeded into clear 96-well plates containing 10,000 cells/well in 100 µL complete growth medium and cultured for 24 h at 37 °C and 5% CO2. […] After further 24 h incubation at 37 °C and 5% CO2, 20 µL of CelTiter 96® AQueous One Solution (Promega) was added into each well and incubated at 37 °C, 5% CO2 for 1–4 h, according to the manufacturer’s instruction. The absorbance of each well was measured at 490 nm using a plate reader (Spark, Tecan). Control measurements included negative control of cells with DMEM, cells with DMEM containing 0.1% DMSO, cell-free culture media (blank) and cell-free sample dilutions in culture media to evaluate potential sample interferences with MTS assay. All experiments were conducted in biological triplicates. The percentage cell viability was calculated according to Eq. (1):1 Cell viability(%)=100×Absorbanceoftreatedcells-Absorbanceofblank/Absorbanceofcontrol-Absorbanceofblank

[6] = system: WI-38 cells; experiment: Light-induced toxicity towards WI-38 cells (MTS); assay type: cell-based, human; details: 10 μM flavin, 15 min irradiation 1 × 10^5 lx
Description: An adapted method reported by Maisch et al. was used to conduct phototoxicity studies on human lung fibroblasts, WI-38[28]. Cells were seeded into 96-well plates containing 10,000 cells/well in 100 µL complete growth medium and cultured for 24 h at 37 °C and 5% CO2. […] The resulting mixtures were then incubated in the dark for 5 min and then either illuminated with 1 × 10^5 lx for 5, 10 or 15 min, or incubated further in the dark for 15 min (dark control). After irradiation, the flavin solutions were removed and 100 μL of DMEM with 10% FBS and without phenol red was added to each well and incubated over night at 37 °C and 5% CO2. Subsequently, 20 µL of MTS reagent was added into each well and incubated at 37 °C and 5% CO2 for 1–4 h and the absorbance of each well was measured at 490 nm using a plate reader. Control measurements included negative control untreated cells with light and in the dark containing 0.1% DMSO and cells treated with flavins for 15 min in the dark. All experiments were conducted in biological triplicates. The percentage cell viability was calculated according to Eq. (1).

| Structure (SMILES) | ФF fluorescence quantum yield [1] [%] | φF fluorescence quantum yield [1] | ФΔ singlet oxygen quantum yield [2] [%] | φΔ singlet oxygen quantum yield [2] | photodecomposition / degradation [3] | % cleaved ssRNA [4] [%] | IC50 [5] [µM] | reduction in cell viability (light-induced toxicity) [6] |
| --- | --- | --- | --- | --- | --- | --- | --- | --- |
| CCCCCCCCn1c(=O)nc2n(CCNC(=N)N)c3cc(C)c(C)cc3nc-2c1=O [Flavin F2] | 14 | 0.141 ± 0.010 | 55 | 0.55 ± 0.10 | approximately 10% | 46 | > 100 | ~ 75% |
| CCCCCCCCn1c(=O)nc2n(CCNC(=N)N)c3cc(Br)c(Br)cc3nc-2c1=O [Flavin F4] | < 2 | 0.011 ± 0.010 | 62 | 0.62 ± 0.10 | ~30% | 42 | 50.9 | ~ 20% |
| CCCCCCCCn1c(=O)nc2n(CCN)c3cc(Br)c(Br)cc3nc-2c1=O [Flavin F3] | < 2 | 0.009 ± 0.013 | 85 | 0.85 ± 0.09 | ~60% | 35 | 3.66 | no decrease in cell viability |
| CCCCCCCCn1c(=O)nc2n(CCN)c3cc(C)c(C)cc3nc-2c1=O [Flavin F1] | 13 | 0.129 ± 0.012 |  | 0.49 ± 0.12 | around 40% | 12 | 70.2 | no decrease in cell viability |

From article PMC9022420 (Scientific Reports, 2022)
